Reference: patent US9504738B2, “Immunogenic epitopes, peptidomimetics, and anti-peptide antibodies, and methods of their use” (Ohio State Innovation Foundation, priority 2010, dated 2016)
Ends that are not written are not given here.

Legend:
[1] = test system: HUVEC; assay: Scratch wound assay (HUVEC migration); assay type: cell-based, human; conditions: stimulated with 50 ng/ml rhVEGF, 16 h
Experimental: Scratch Wound Assay. HUVEC were cultured on 0.1% gelatin coated 24-well plates. Confluent cells were incubated overnight with starving media, then they were scraped using sterilized 200-μl pipette tips and stimulated with 50 ng/ml of rhVEGF with or without VEGF mimic peptides for 16 h at 37° C. Cells were fixed and images were captured immediately at 40× magnification from light microscopy and cells that migrated to the scraped area were counted using imageJ software.
VEGF mimic peptides inhibit cell migration in a Scratch Wound Assay. New blood vessel formation requires that the endothelial cells migrate towards the sources of growth factor. […] We used the scratch wound assay with HUVEC to observe the ability of the VEGF mimic peptides in inhibiting endothelial cell migration. […] Growth conditions (medium supplemented with 20% FBS and endothelial cell growth supplements).

[2] = biological target: T1, extracellular domain of VEGFR-2 (KDR-Fc) (Homo sapiens, UniProt P35968); assay: Surface plasmon resonance (BIAcore 3000): KDR-Fc injected over immobilized VEGF mimic peptides; conditions: peptide immobilized on CM5 chip, 1:1 (Langmuir) model, read-out: equilibrium binding constant (KD), binding affinity
T1 construct: the extracellular domain of VEGFR-2(KDR-Fc) was injected as ligand; Fc; purchased R&D System
T1 sequence (P35968 20-764 limits assumed): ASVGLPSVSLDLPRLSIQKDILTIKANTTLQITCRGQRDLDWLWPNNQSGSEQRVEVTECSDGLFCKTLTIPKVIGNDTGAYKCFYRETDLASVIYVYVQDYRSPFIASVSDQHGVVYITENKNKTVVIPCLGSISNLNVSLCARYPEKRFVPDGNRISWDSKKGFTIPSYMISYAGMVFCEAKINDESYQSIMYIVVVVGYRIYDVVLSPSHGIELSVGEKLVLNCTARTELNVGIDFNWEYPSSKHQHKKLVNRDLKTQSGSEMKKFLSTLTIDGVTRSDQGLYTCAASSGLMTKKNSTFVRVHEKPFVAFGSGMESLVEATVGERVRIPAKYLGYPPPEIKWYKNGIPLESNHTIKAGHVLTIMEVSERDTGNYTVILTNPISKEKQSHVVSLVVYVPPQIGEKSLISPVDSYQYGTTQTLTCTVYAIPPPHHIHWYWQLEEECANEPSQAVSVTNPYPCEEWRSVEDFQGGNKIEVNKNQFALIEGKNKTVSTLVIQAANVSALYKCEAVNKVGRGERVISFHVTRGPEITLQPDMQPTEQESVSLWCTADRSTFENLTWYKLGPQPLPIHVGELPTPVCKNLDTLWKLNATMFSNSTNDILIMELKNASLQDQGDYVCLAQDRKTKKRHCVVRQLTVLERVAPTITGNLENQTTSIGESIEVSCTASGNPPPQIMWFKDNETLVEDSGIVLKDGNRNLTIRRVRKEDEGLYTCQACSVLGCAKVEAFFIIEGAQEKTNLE
Experimental: Surface Plasma Resonance. Binding assays were performed using a Biacore 3000 instrument (Pharmacia Bio-sensor, Uppsala, Sweden). The experiments were performed at room temperature using HBS-EP buffer (25 mM HEPES, pH 7.4, […], 3.4 mM EDTA, and 0.005% surfactant P20). Peptides were coupled onto CM5 chip surfaces at 10 μL/min using a standard amine coupling protocol with EDC (N-ethyl-N′-[dimethylaminopropyl]carbodiimide)/NHS (N-hydroxysuccinimide). KDR-Fc (R&D System) at several concentrations in HBS-EP buffer. Was injected at a flow rate of 10 μL/min. Data analysis was performed with BIAsimulation software version 3.1 (Pharmacia Biosensor). […] To obtain measurement of anti-peptides binding affinities similar a experiment was carried out, but rhVEGF was immobilized onto CM5 chip surface and anti-peptides were injected at several concentrations.
Conformational VEGF mimic peptide binds to VEGFR-2. Binding assay was carried out using BIAcore 3000 instrument. Designed VEGF mimic peptide VEGF-P3 (NC) and (CYC) were immobilized onto chip CM5 and the extracellular domain of VEGFR-2(KDR-Fc) was injected as ligand. […] Global analysis was performed with data points fitting to a simple 1:1 (Langmuir) binding model. The equilibrium binding constant (KD) takes Ka and Kd values in consideration and represents the binding affinity. […]

[3] = biological target: T2, VEGFR-2 (Homo sapiens, UniProt P35968); assay: VEGFR-2 phosphorylation in 293/KDR cells, quantified with Human Phospho-VEGF R2/KDR DuoSet IC kit; assay type: cell-based; conditions: 293/KDR cells stimulated with rhVEGF; control (only rhVEGF) taken as 100%
T2 construct: host or cells: 293/KDR cells
T2 sequence (P35968 20-1356): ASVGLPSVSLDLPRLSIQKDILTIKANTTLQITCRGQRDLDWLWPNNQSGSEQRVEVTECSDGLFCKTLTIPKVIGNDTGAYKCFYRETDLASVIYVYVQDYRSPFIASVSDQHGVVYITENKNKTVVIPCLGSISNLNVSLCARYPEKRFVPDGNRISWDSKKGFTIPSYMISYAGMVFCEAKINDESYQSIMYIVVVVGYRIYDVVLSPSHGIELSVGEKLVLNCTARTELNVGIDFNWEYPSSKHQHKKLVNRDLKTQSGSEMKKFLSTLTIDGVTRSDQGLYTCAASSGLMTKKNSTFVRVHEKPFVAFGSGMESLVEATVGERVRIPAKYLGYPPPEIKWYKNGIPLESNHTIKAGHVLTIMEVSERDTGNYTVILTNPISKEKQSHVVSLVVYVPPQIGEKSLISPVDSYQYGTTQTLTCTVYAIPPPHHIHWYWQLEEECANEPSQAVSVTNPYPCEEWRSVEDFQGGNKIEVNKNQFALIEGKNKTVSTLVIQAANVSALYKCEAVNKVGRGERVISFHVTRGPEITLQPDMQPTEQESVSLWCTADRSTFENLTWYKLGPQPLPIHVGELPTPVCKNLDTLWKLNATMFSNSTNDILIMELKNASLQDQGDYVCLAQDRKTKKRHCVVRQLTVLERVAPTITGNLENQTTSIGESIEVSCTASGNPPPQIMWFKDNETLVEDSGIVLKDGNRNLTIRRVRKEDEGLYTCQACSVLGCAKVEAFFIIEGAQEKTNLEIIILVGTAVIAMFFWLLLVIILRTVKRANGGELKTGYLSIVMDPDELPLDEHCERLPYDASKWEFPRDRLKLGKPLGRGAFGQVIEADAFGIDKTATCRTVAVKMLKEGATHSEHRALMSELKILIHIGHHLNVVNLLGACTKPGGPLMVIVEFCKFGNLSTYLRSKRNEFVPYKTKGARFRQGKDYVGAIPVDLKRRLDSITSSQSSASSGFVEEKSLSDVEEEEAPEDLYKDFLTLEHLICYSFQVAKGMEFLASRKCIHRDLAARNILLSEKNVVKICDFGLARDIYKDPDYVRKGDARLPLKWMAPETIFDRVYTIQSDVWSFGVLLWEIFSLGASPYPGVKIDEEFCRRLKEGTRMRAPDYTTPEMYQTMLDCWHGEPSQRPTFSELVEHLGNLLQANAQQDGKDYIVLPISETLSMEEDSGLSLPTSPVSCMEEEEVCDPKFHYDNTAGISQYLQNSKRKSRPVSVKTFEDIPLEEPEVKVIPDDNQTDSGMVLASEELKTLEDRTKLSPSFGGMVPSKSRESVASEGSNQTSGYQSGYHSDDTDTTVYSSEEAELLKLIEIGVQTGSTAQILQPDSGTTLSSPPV
Experimental: 293/KDR cells (5×10^5 cells/well) were seeded on 6-well plates in DMEM medium supplemented with 10% FBS. After overnight incubation in starving medium (no FBS) cells were stimulated with rhVEGF for 5 min. Cells were washed in cold PBS supplemented with 1 mM sodium orthovanadate and harvested into RIPA lysis buffer (Santa Cruz Biotechnology, Santa Cruz, Calif.) and incubated on ice for 30 min and cell lysate was collected after centrifugation at 13000 rpm for 10 min. Cell lysate was kept at −80° C. until used for Western blotting detecting phosphoro-KDR and total KDR as described above.
Conformational VEGF mimic peptide prevents VEGFR-2 phosphorylation. VEGFR-2 (also known as […] or KDR) has been characterized as a tyrosine receptor type III. VEGFR-2 activation is promoted by dimerization upon VEGF binding. VEGFR-2 contains several tyrosine residues that can be phosphorylated, triggering several pathways such as proliferation, migration and survival in the endothelial cells. […] All three VEGF mimic peptides were able to decrease the level of receptor phosphorylation (FIG. 5); however, the inhibitory effect was unable to be quantified, due to the limited detection of VEGFR-2 in the Western blotting. […] The percentage of inhibition was calculated assuming the phosphorylation level of control (only rhVEGF) was 100% and the results are represented in FIG. 6B.

[4] = biological target: T3, HER-2 (Homo sapiens, UniProt P04626); assay: HER-2 phosphorylation assay in BT-474 cells, peptides (Duoset IC human phospho-ErbB2); assay type: cell-based; conditions: peptides then HRG 10 min
T3 construct: The human breast tumor cell lines BT-474 were purchased from American Type Culture Collection; host or cells: BT-474
Experimental: Phosphorylation assay. 1×10^6 BT-474 cells were plated in each well of a six well plate and incubated overnight at 37° C. Culture medium was removed and the cell layer washed once with PBS low score (1% FCS). Culture medium was added to the wells and plates incubated overnight. Cells were washed and 50 ug of peptides, anti-peptide Abs and controls in binding buffer (0.2% w/v BSA, RPMI 1640 medium with 10 mM HEPES (pH 7.2) was added to the wells and incubated at room temperature for 1 h. HRG (5 nM/well) was added and the incubation continued for 10 min. Binding buffer was removed and the cell layer washed once with PBS before adding 1 ml of RIPA lysis buffer (Santa Cruz Biotechnology, Santa Cruz, Calif.). Plates were rocked at 4° C. for 2 h. Lysates were removed, spun at 13000×g and supernatants collected. Protein concentration of each sample was measured by Coomassie plus protein assay reagent kit and lysates were stored at −80° C. Phosphorylation was determined by Duoset IC for human phosphor-ErbB2 according to the manufacturer's directions (RSD Systems).
Peptide inhibition of Phosphorylation. The main mode of action of Pertuzumab is to inhibit phosphorylation. This is due to the fact that it sterically blocks the dimerization domain of HER-2 thereby preventing the formation of dimers with other HER receptors and thus interrupting downstream signaling. […]

[5] = test system: TS/A cells (HER-2 negative); assay: Proliferation assay (MTT) of TS/A cells in presence of HRG; assay type: cell-based, mouse; conditions: HER-2 negative cell line
Experimental: Proliferation assay. BT-474, SK-BR-3, MDA-468 and TS/A cells (1×10^4 were plated in 96-well flat-bottom plates overnight. Growth medium was replaced with low sera (1% FCS) medium and the cells were incubated overnight. Media were removed from the wells and replaced with low sera medium containing HER-2 and VEGF mimic peptides at concentrations ranging from 25-150 ug/ml and plates were incubated an additional 1 h at 37° C. before adding 10 ng/ml HRG in 1% medium. Plates were incubated for an additional 72 h at 37° C. before adding MTT (5 mg/ml) to each well. Plates were incubated 2 h at 37° C., and 1000 of extraction buffer (20% SDS, 50% dimethylformamide (pH 4.7)) was added to each well. Plates incubated overnight at 37° C. and read on an ELISA reader at 570 nm with 655 nm background subtraction Inhibition percentage was calculated as 100%×(Untreated cells-Peptide treated cells)/(Untreated cells).
Antiproliferative effects of peptides. The antiproliferative effects of the peptides were tested using four different cell lines (Bt-474 and SK-BR-3: HER-2^high, MDA-468: HER-2^low and TS/A: HER-2^negative) (FIGS. 13A-13D) in the presence of HRG to activate the HER-3 receptor. […] The cells were incubated with the peptides before being exposed to HRG.

[6] = Active immunization of rabbits, antibody titers by ELISA; assay type: in vivo, rabbit; conditions: outbred rabbits, MVF chimeric peptide
Experimental: Active immunization and Ab purification. Mice and rabbits were immunized subcutaneously at multiple sites with a total of 1 mg (rabbits) or 100 μg (mice) of peptide dissolved in ddH2O emulsified (1:1) in Montanide ISA720 vehicle (Seppic) with 100 μg of N-acetylglucosamine-3-yl-acetyl-1-alanyl-d-isoglutamine (nor-MDP). Balb/c mice. Rabbits and mice were boosted with the respective doses at 3 week intervals. Rabbit blood was collected via the central auricular artery and sera tested for antibody titers. Anti-peptide antibodies were purified by affinity chromatography using a Protein A/G column (Pierce) from high titer antibody sera.
ELISA. Antibody titers were determined as previously described and it is defined as the reciprocal of the highest serum dilution with an absorbance of 0.2 or greater after subtracting the background.
Antigenicity and Immunogenicity of Peptides. Earlier studies in our lab have shown that the MVF-HER-2-266 was highly immunogenic in both rabbits and mice. […] We had to do up to six immunizations with the D-amino acid peptide before we could obtain higher abs titers while with the L-amino acids only four immunization are enough to produce higher titers. We therefore used the abs raised against these peptides to test their effects on cancer cells in vitro.

CC(C)c1cc(/C=C(\C#N)C(=O)NCCCc2ccccc2)cc(C(C)C)c1O [SU1498]
inhibition of HUVEC migration [1]: approximately 50%

ITMQIMRIKPHQGQHIGEMSF [VEGF 102-122]
Kd [2]: 45 nM | inhibition of VEGFR-2 phosphorylation [3]: 4%

LHCPALVTYNTDTFESMPNPEGRYTFGASCV [HER-2-266-296]
inhibition rate of HER-2 phosphorylation [4]: 38% | antiproliferative effect on TS/A cells [5]: inhibitory effects

NH2-D[FSMECIMIKPHQGQHIGCQMTI]-COOH [VEGF-P4-CYC]
inhibition rate of HER-2 phosphorylation [4]: 39% | immunogenicity (antibody titers) [6]: immunogenic
